Measurements: patent US9751851B2, “Molecules and compositions that inhibit gram negative bacteria and their uses” (THE TRUSTEES OF PRINCETON UNIVERSITY, priority 2013, dated 2017)
Like-named read-outs stand apart in the source and are kept apart here.

Columns and labels:
[1] = system: wild-type P. aeruginosa PA14; experiment: microbe, parasite or virus in culture; format: cell-based; settings: for inhibition at 100 µM / Efficacy (%): reduction of pyocyanin vs WT P. aeruginosa PA14: 0% = WT level, 100% = background medium; for IC50: read-out: IC50 for inhibition of pyocyanin production; for inhibition of pyocyanin production (in words): wild-type P. aeruginosa PA14, end point assays at 100 μM
Experimental: Methods. The oxidized form of pyocyanin imparts a green color to P. aeruginosa cultures, making the production of pyocyanin convenient to monitor by UV/Vis absorbance. Overnight P. aeruginosa cultures were subcultured into 5 mL fresh medium at 1:1000 dilution. Synthetic compounds were assayed at 100 μM for end point assays and at concentrations ranging from 200 nM to 200 μM for titrations following 17 hr of aerobic growth with shaking at 37° C. Cells were separated from culture fluids via centrifugation at 13,000 rpm for 15 min. Culture fluids were passed through 0.22 μm syringe driven filters (Millipore). Cell-free culture fluids were analyzed for pyocyanin using wavelength scans on a Beckman Coulter DU-800 spectrophotometer from 200 nm to 800 nm 695 nm was chosen for graphical representation. Titration data were fit with a variable-slope sigmoidal dose-response curve using GraphPad Prism to determine the IC50 values.
The compounds of the first library were assayed in wild-type (WT) P. aeruginosa PA14. Pyocyanin was used as a read-out for quorum sensing activity based on its absorbance at 695 nm. The efficacy of the compounds at reducing pyocyanin levels was calculated with respect to WT levels of pyocyanin, where WT levels of pyocyanin would lead to a 0% efficacy, and an absorbance equal to the background medium would lead to a 100% efficacy. Agonists that increase pyocyanin production have negative efficacy values.

[2] = system: P. aeruginosa PA14; experiment: Growth of P. aeruginosa monitored by absorbance at 600 nm; format: cell-based
[3] = Pseudomonas aeruginosa, PA14, 17 h, read-out: Efficacy (%), Table 3
[4] = Pseudomonas aeruginosa, PA14, 17 h, read-out: Efficacy (%), Table 4
[5] = Pseudomonas aeruginosa, PA14, 17 h
[6] = WT P. aeruginosa PA14, 17 hr growth, titration

Compound | inhibition at 100 µM [1, 4] [%] | Efficacy (%) ([1]; Table 4) | also measured
O=C(COc1cccc(Br)c1)Nc1cc(C(F)(F)F)cc(C(F)(F)F)c1 [S60, 1-amino-3,5-bis(trifluoromethyl)-C6-3-bromophenoxyhybrid] |  |  | inhibition at 100 µM [1, 3]: 44%; Efficacy (%) ([1]; Table 3): 44 ± 8%
O=C(COc1cccc(Br)c1)Nc1ccncc1C(F)(F)F [S62, 4-amino-3-trifluoromethylpyridine-C6-3-bromophenoxyhybrid] |  |  | inhibition at 100 µM [1, 3]: 15%; Efficacy (%) ([1]; Table 3): 15 ± 7%
O=C(COc1ccccc1Br)Nc1ccnc(C(F)(F)F)c1 [S65, 4-amino-2-trifluoromethylpyridine-C6-2-bromophenoxyhybrid] | 94 | 94 ± 4 | 
O=C(COc1cccc(I)c1)Nc1ccnc(C(F)(F)F)c1 [S66, 4-amino-2-trifluoromethylpyridine-C6-3-iodophenoxyhybrid] | 95 | 95 ± 3 | 
O=C(COc1cccc(Cl)c1)Nc1ccnc(C(F)(F)F)c1 [S67, 4-amino-2-trifluoromethylpyridine-C6-3-chlorophenoxyhybrid] | 101 | 101 ± 3 | 
O=C(COc1ccc(F)cc1)Nc1ccnc(C(F)(F)F)c1 [S68, 4-amino-2-trifluoromethylpyridine-C6-4-fluorophenoxyhybrid] | 54 | 54 ± 4 | 
O=C(COc1ccccc1F)Nc1ccnc(C(F)(F)F)c1 [S69, 4-amino-2-trifluoromethylpyridine-C6-2-fluorophenoxyhybrid] | 78 ± 3 |  | 
O=C(COc1ccc(F)cc1F)Nc1ccnc(C(F)(F)F)c1 [S70, 4-amino-2-trifluoromethylpyridine-C6-2,4-bisfluorophenoxyhybrid] | 49 ± 3 |  | 
O=C(COc1c(F)cccc1F)Nc1ccnc(C(F)(F)F)c1 [S71, 4-amino-2-trifluoromethylpyridine-C6-2,6-bisfluorophenoxyhybrid] | 66 ± 4 |  | 
O=C(COc1c(F)c(F)c(F)c(F)c1F)Nc1ccnc(C(F)(F)F)c1 [S72, 4-amino-2-trifluoromethylpyridine-C6-perfluorophenoxyhybrid] | 21 ± 14 |  | 
O=C(COc1cccc([N+](=O)[O-])c1)Nc1ccnc(C(F)(F)F)c1 [S73, 4-amino-2-trifluoromethylpyridine-C6-3-nitrophenoxyhybrid] | 39 ± 36 |  | 
N#Cc1cccc(OCC(=O)Nc2ccnc(C(F)(F)F)c2)c1 [S74, 4-amino-2-trifluoromethylpyridine-C6-3-cyanophenoxyhybrid] | 0.48 ± 7 |  | 
O=C(COc1cccc(C(F)(F)F)c1)Nc1ccnc(C(F)(F)F)c1 [S75, 4-amino-2-trifluoromethylpyridine-C6-3-trifluoromethylphenoxyhybrid] | 59 ± 3 |  | 
Cc1cccc(OCC(=O)Nc2ccnc(C(F)(F)F)c2)c1 [S76, 4-amino-2-trifluoromethylpyridine-C6-3-methylphenoxyhybrid] | 81 | 81 ± 4 | 
O=C(COc1cccc(O)c1)Nc1ccnc(C(F)(F)F)c1 [S77, 4-amino-2-trifluoromethylpyridine-C6-3-hydroxyphenoxyhybrid] | 70 | 70 ± 7 | 
O=C(COc1ccccc1O)Nc1ccnc(C(F)(F)F)c1 [S78, 4-amino-2-trifluoromethylpyridine-C6-2-hydroxyphenoxyhybrid] | 95 | 95 ± 4 | 
O=C(CSc1cccc(F)c1)Nc1ccnc(C(F)(F)F)c1 [S79, 4-amino-2-trifluoromethylpyridine-C6-3-fluoroarylsulfide hybrid] | 94 | 94 ± 4 | 
O=C(CNc1cccc(F)c1)Nc1ccnc(C(F)(F)F)c1 [S80, 4-amino-2-trifluoromethylpyridine-C6-3-fluoroaniline hybrid] | 100 | 100 ± 4 | 
O=C(CCCCC#Cc1cccc(F)c1)Nc1ccnc(C(F)(F)F)c1 [S82, 7-(3-fluorophenyl)-N-(2-(trifluoromethyl)pyridin-4-yl)hept-6-ynamide] | 97 | 97 ± 4 | 
O=C(CCCCCCc1cccc(F)c1)Nc1ccnc(C(F)(F)F)c1 [S83, 7-(3-fluorophenyl)-N-(2-(trifluoromethyl)pyridin-4-yl)heptanamide] | 96 | 96 ± 4 | 
CCCCCCCCCNC(=O)CC(=O)c1ccccc1 [V-06-018, reference compound] |  |  | IC50 [1, 5]: 18 µM
CCCCCCCCCC(=O)CC(=O)Nc1ccncc1 [compound 14, 3OC12-4-aminopyridine] |  |  | inhibition at 100 µM ([1]; Pseudomonas aeruginosa, PA14, 17 h, read-out: Efficacy (%), Table 1, negative = agonist): 63 ± 2%; IC50 [1, 5]: 0.16 µM
CCCCCCCCCCCC(=O)Nc1ccnc(F)c1 [compound 15, C12-4-amino-2-fluoropyridine] |  |  | inhibition at 100 µM ([1]; Pseudomonas aeruginosa, PA14, 17 h, read-out: Efficacy (%), Table 2, negative = agonist): 70%; Efficacy (%) ([1]; Table 2, negative = agonist): 70 ± 2%
O=C(COc1cccc(F)c1)Nc1ccnc(C(F)(F)F)c1 [compound 17, 4-amino-2-trifluoromethylpyridine-C6-3-fluorophenoxyhybrid] | 103 | 103 ± 3 | inhibition of pyocyanin production (in words) [1]: highly effective at blocking pyocyanin production
O=C(CCCCCCCCCCN=C=S)CC(=O)NC1CCOC1=O (centres unmarked) [itc-13, reference compound] |  |  | IC50 [1, 6]: 56 µM
O=C(CCCOc1cccc(Br)c1)N[C@H]1CCOC1=O [mBL] |  |  | inhibition of pyocyanin production (in words) [1]: most effective inhibitor of pyocyanin production
O=C(CCCOc1cccc(Cl)c1)NC1CCSC1=O (centres unmarked) [mCTL] |  |  | effect on P. aeruginosa PA14 growth [2]: not affecting P. aeruginosa PA14 growth; IC50 [1, 6]: 9 µM; inhibition of pyocyanin production (in words) [1]: potent inhibition of pyocyanin
chlorothiolactone [CTL, reference compound] |  |  | inhibition of pyocyanin production (in words) [1]: Neither CL nor CTL inhibited pyocyanin production
